Values after ≈ are worked out from the molar mass of the structure shown.
Key:
Assay type in all cases: functional
Nocardia nova = experiment: Antimicrobial activity against Nocardia nova after 72 hrs by microdilution method
Nocardia beijingensis = experiment: Antimicrobial activity against Nocardia beijingensis after 72 hrs by microdilution method
Nocardia transvalensis = experiment: Antimicrobial activity against Nocardia transvalensis after 72 hrs by microdilution method
Nocardia sp. = experiment: Antimicrobial activity against Nocardia sp. after 72 hrs by microdilution method
Nocardia farcinica = experiment: Antimicrobial activity against Nocardia farcinica after 72 hrs by microdilution method
Nocardia abscessus = experiment: Antimicrobial activity against Nocardia abscessus after 72 hrs by microdilution method
[1] = tested on: Nocardia otitidiscaviarum; experiment: Antimicrobial activity against Nocardia otitidiscaviarum after 72 hrs by microdilution method
Nocardia cyriacigeorgica = experiment: Antimicrobial activity against Nocardia cyriacigeorgica after 72 hrs by microdilution method
Nocardia veterana = experiment: Antimicrobial activity against Nocardia veterana after 72 hrs by microdilution method
Nocardia carnea = experiment: Antimicrobial activity against Nocardia carnea after 72 hrs by microdilution method
Nocardia brasiliensis = experiment: Antimicrobial activity against Nocardia brasiliensis after 72 hrs by microdilution method

| Compound | MIC (Nocardia nova) | MIC (Nocardia beijingensis) | MIC (Nocardia transvalensis) | MIC (Nocardia sp.) | MIC (Nocardia farcinica) | MIC (Nocardia abscessus) | MIC [1] | MIC (Nocardia cyriacigeorgica) | MIC (Nocardia veterana) | MIC (Nocardia carnea) | MIC (Nocardia brasiliensis) |
| --- | --- | --- | --- | --- | --- | --- | --- | --- | --- | --- | --- |
| CN(C)c1ccc(O)c2c1C[C@H]1C[C@H]3[C@H](N(C)C)C(O)=C(C(N)=O)C(=O)[C@@]3(O)C(O)=C1C2=O [MINOCYCLINE] | 1 µg/mL (≈ 2.19 µM) | ≤ 0.06 µg/mL | 1 µg/mL (≈ 2.19 µM) | 0.25 µg/mL (≈ 0.546 µM) | 1 µg/mL (≈ 2.19 µM) | ≤ 0.06 µg/mL | 0.5 µg/mL (≈ 1.09 µM) | ≤ 0.06 µg/mL | 1 µg/mL (≈ 2.19 µM) | 0.5 µg/mL (≈ 1.09 µM) | 1 µg/mL (≈ 2.19 µM) |
| COc1c(N2C[C@@H]3CCCN[C@@H]3C2)c(F)cc2c(=O)c(C(=O)O)cn(C3CC3)c12 [MOXIFLOXACIN] | 2 µg/mL (≈ 4.98 µM) | ≤ 0.06 µg/mL | 0.12 µg/mL (≈ 0.299 µM) | ≤ 0.06 µg/mL | ≤ 0.06 µg/mL | 1 µg/mL (≈ 2.49 µM) | ≤ 0.06 µg/mL | ≤ 0.06 µg/mL | 0.5 µg/mL (≈ 1.25 µM) | ≤ 0.06 µg/mL | ≤ 0.06 µg/mL |
| CN(C)c1cc(NC(=O)CNC(C)(C)C)c(O)c2c1C[C@H]1C[C@H]3[C@H](N(C)C)C(O)=C(C(N)=O)C(=O)[C@@]3(O)C(O)=C1C2=O [TIGECYCLINE] | 0.5 µg/mL (≈ 0.854 µM) | 0.25 µg/mL (≈ 0.427 µM) | 2 µg/mL (≈ 3.41 µM) | ≤ 0.06 µg/mL | 1 µg/mL (≈ 1.71 µM) | ≤ 0.06 µg/mL | ≤ 0.06 µg/mL | ≤ 0.06 µg/mL | 0.12 µg/mL (≈ 0.205 µM) | ≤ 0.06 µg/mL | ≤ 0.06 µg/mL |
| C[C@@H](O)[C@H]1C(=O)N2C(C(=O)O)=C(S[C@@H]3CN[C@H](C(=O)Nc4cccc(C(=O)O)c4)C3)[C@H](C)[C@H]12 [ERTAPENEM] | 0.5 µg/mL (≈ 1.05 µM) | 2 µg/mL (≈ 4.21 µM) | > 64 µg/mL | 0.25 µg/mL (≈ 0.526 µM) | 4 µg/mL (≈ 8.41 µM) | 0.5 µg/mL (≈ 1.05 µM) | 1 µg/mL (≈ 2.1 µM) | ≤ 0.06 µg/mL | 0.25 µg/mL (≈ 0.526 µM) | 2 µg/mL (≈ 4.21 µM) | 2 µg/mL (≈ 4.21 µM) |

More lines, in order of falling MIC (Nocardia nova), values ahead:

| MIC (Nocardia nova) | MIC (Nocardia beijingensis) | MIC (Nocardia transvalensis) | MIC (Nocardia sp.) | MIC (Nocardia farcinica) | MIC (Nocardia abscessus) | MIC [1] | MIC (Nocardia cyriacigeorgica) | MIC (Nocardia veterana) | MIC (Nocardia carnea) | MIC (Nocardia brasiliensis) | Compound |
| --- | --- | --- | --- | --- | --- | --- | --- | --- | --- | --- | --- |
| 0.5 µg/mL (≈ 1.3 µM) | 2 µg/mL (≈ 5.22 µM) | > 64 µg/mL | ≤ 0.06 µg/mL | 2 µg/mL (≈ 5.22 µM) | 0.25 µg/mL (≈ 0.652 µM) | 1 µg/mL (≈ 2.61 µM) | ≤ 0.06 µg/mL | 0.12 µg/mL (≈ 0.313 µM) | 1 µg/mL (≈ 2.61 µM) | 1 µg/mL (≈ 2.61 µM) | C[C@@H](O)[C@H]1C(=O)N2C(C(=O)O)=C(S[C@@H]3CN[C@H](C(=O)N(C)C)C3)[C@H](C)[C@H]12 [MEROPENEM] |
| 0.12 µg/mL (≈ 0.205 µM) | ≤ 0.06 µg/mL | 32 µg/mL (≈ 54.6 µM) | 0.25 µg/mL (≈ 0.427 µM) | 1 µg/mL (≈ 1.71 µM) | ≤ 0.06 µg/mL | 1 µg/mL (≈ 1.71 µM) | ≤ 0.06 µg/mL | 0.25 µg/mL (≈ 0.427 µM) | 0.5 µg/mL (≈ 0.854 µM) | 1 µg/mL (≈ 1.71 µM) | NCC[C@H](O)C(=O)N[C@@H]1C[C@H](N)[C@@H](O[C@H]2O[C@H](CN)[C@@H](O)[C@H](O)[C@H]2O)[C@H](O)[C@H]1O[C@H]1O[C@H](CO)[C@@H](O)[C@H](N)[C@H]1O [AMIKACIN] |
| 0.12 µg/mL (≈ 0.356 µM) | ≤ 0.06 µg/mL | 1 µg/mL (≈ 2.96 µM) | ≤ 0.06 µg/mL | 0.12 µg/mL (≈ 0.356 µM) | ≤ 0.06 µg/mL | ≤ 0.06 µg/mL | 0.12 µg/mL (≈ 0.356 µM) | 0.25 µg/mL (≈ 0.741 µM) | ≤ 0.06 µg/mL | 1 µg/mL (≈ 2.96 µM) | CC(=O)NC[C@H]1CN(c2ccc(N3CCOCC3)c(F)c2)C(=O)O1 [LINEZOLID] |
| 0.12 µg/mL (≈ 0.401 µM) | 0.5 µg/mL (≈ 1.67 µM) | > 64 µg/mL | ≤ 0.06 µg/mL | 1 µg/mL (≈ 3.34 µM) | 0.5 µg/mL (≈ 1.67 µM) | 0.5 µg/mL (≈ 1.67 µM) | ≤ 0.06 µg/mL | ≤ 0.06 µg/mL | 0.5 µg/mL (≈ 1.67 µM) | 1 µg/mL (≈ 3.34 µM) | C[C@@H](O)[C@H]1C(=O)N2C(C(=O)O)=C(SCCNC=N)C[C@H]12 [IMIPENEM ANHYDROUS] |

From ChEMBL document CHEMBL1142084, “In vitro activities of tigecycline and eight other antimicrobials against different Nocardia species identified by molecular methods” (2007)
